The source of these data is patent US20060241099A1 (Pliva-Istrazivacki Institut d.o.o., priority 2003, published 2006).

Broadly, the IC50 is the point on the concentration scale where inhibition reaches its midpoint. Broadly, the Ki is a dissociation constant, usually derived from enzyme kinetics or from competition with a known ligand.

The target of one assay is T1, 5-HT2A receptor (Homo sapiens, UniProt P28223).
T1 construct: expressed in transfected cells; host or cells: CHO-K1 (or human cortex tissue)
The assay is described as follows: radioligand binding assay for 5-HT2A receptor ([3H]-ketanserin). Particulars: human cortex or recombinant 5-HT2A receptor expressed in CHO-K1 cells; for IC50: read-out: binding affinity to 5-HT2A serotonin receptor expressed as IC50 value; for Ki: read-out: binding affinity to 5-HT2A serotonin receptor, Ki value. The procedure: (§1) The effect of the compounds of the present invention on the neurochemical steady state was determined by in vitro investigations such as a radionuclide-marked radioligand binding assay for 5-HT2A (Bonhaus D. W. Br. J. Pharmacol. 1995, 115:622; Saucier C. J. Neurochem. 1997, 68:1998) and 5-HT2C receptors (Wolf W. A. J. Neurochem. 1997, 69:1449), in vitro binding assay for al receptor (Thomson W. and Donn R. Arthritis Res. 2002, 4: 302-306) and by in vivo investigations in a tail suspension test (Vogel H. G. and Vogel W. H. Drug Discovery and Evaluation Pharmacological Assays, Springer 1997, 304), in amphethamine-induced hyperlocomotion in mice (Millan M. J. et al, 1998 J Pharmacol. Exp. Ther. 287: 167-186) in a forced swim test in mice (Porsolt R. D. et al. Arch. Int. Pharmacodyn. 1977, 229:327-336), in meta-chlorophenyl piperazine (m-CPP) test on rats (Drug Dev. Res. 1989, 18:119-144) and in apomorphine, tryptamine, norepinephrine (ATN) test in rats (Arch. Int. Pharmacodyn. 1977, 227:238-253).
(§2) A small concentration of a radioligand having a great affinity for binding to a receptor was incubated with a tissue sample enriched with a certain receptor (1-5 mg of tissue) in a buffered medium (0.2-5 μL). Recombinant human HT2A and HT2C receptors were expressed in CHO-K1 or COS-7 cells and were also used for competitive binding. During incubation the radioligand bound to the receptor. When a binding balance was achieved, the receptors to which the radioligand was bound were separated from those to which said ligand was not bound, and the radioactivity of the receptor/radioligand complex was measured. The interaction of the tested compounds with receptors was tested in competitive binding experiments. Various concentrations of tested compounds were added to the incubation mixture containing a prepared tissue enriched with corresponding receptors and the radioligand. The radioligand binding was inhibited by the test compounds proportionally to the affinity of a certain compound for the receptor and to the concentration of the compound.
The radioligand used for the determination of binding to 5-HT2A receptor was [^3H]-ketanserin and the tissue used was human cortex or recombinant 5-HT2A receptor expressed in CHO-K1 cells.

The next assay concerns the target T2, 5-HT2C receptor (Homo sapiens, UniProt P28335).
T2 construct: expressed in transfected cells; host or cells: CHO-K1 (or choroid plexus tissue)
T2 sequence (P28335 33-458): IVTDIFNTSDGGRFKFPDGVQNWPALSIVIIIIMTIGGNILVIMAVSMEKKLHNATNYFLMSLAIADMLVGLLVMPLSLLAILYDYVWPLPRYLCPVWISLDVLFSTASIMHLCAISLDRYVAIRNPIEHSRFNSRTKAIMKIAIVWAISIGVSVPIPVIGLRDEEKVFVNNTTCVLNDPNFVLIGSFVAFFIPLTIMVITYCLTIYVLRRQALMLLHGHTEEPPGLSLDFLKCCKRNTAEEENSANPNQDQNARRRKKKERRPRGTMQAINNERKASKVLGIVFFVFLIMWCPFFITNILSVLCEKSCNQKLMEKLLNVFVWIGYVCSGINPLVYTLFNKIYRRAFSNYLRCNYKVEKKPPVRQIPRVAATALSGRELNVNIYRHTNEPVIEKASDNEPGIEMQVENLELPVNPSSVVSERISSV
The assay is described as follows: radioligand binding assay for 5-HT2C receptor ([3H]-mesulergine). Particulars: choroid plexus or recombinant 5-HT2C receptor expressed in CHO-K1 cells; for IC50: read-out: binding affinity to 5-HT2C serotonin receptor expressed as IC50 value; for Ki: read-out: binding affinity to 5-HT2C serotonin receptor, Ki value. As for the experimental part: as §1, §2
The radioligand used for the determination of binding to 5-HT2C receptor was [^3H]-mesulergine and the tissue used was choroid plexus or recombinant 5-HT2C receptor expressed in CHO-K1 cells.

A further assay has as its target T3, σ1 receptor (Homo sapiens, UniProt Q99720).
T3 construct: endogenous in cells; host or cells: Jurkat cell membranes
As to the kind of experiment: in vitro binding affinity to σ1 receptor, Jurkat cell membranes, [3H]haloperidol. The following applies: for IC50: read-out: binding affinity to σ1 receptor expressed as IC50 value. The procedure:
as §1
Jurkat cell were grown in medium, RPMI supplemented with 10% fetal bovine serum, 100 U/ml penicillin and 100 μg/ml streptomycin, collected and their suspension homogenized. After centrifugation, the membrane fraction was separated, resuspended in phosphate buffer (pH=7.5) and stored in small aliquots in liquid nitrogen until use. Binding of different radiolabeled ligands to Jurkat cell membranes was measured as described previously (Ramamoorthy et al., 1995). To characterize the σ binding sites in the Jurkat cell line, [^3H]haloperidol was first used as the ligand. Haloperidol is a high affinity ligand to both type 1 and type 2 σ-receptors. The binding assays were done using Jurkat cell membranes in the presence of [^3H]haloperidol ([…]) alone to determine the total binding, and in the presence of [^3H]haloperidol (10 nM) and unlabeled haloperidol (10 μM) to determine the nonspecific binding. Membranes were incubated with ligands in phosphate buffer for 3 hours at room temperature. After the filter had been washed, radioactivity associated with the filter was determined by liquid scintillation spectrometry.

The subject of the next assay is mice. As to the kind of experiment: amphetamine-induced hyperlocomotion in mice. In kind it is in vivo. The following applies: male Swiss OFA mice, per os in saline, test doses of 1 mg/kg and 0,1 mg/kg, dexamphetamine sulphate 2 mg/kg i.p. As for the experimental part:
Male Swiss OFA mice of a weight 30-35 g were treated with either vehicle (saline) or test compounds 30 minutes prior to hyperlocomotion induction. Dexamphetamine sulphate was administered intraperitoneally at 2 mg/kg. Thirty minutes later, animals were placed in a wooden box 80×80 cm^2 in a room with low light intensity (100 lux) for locomotor activity recording. Locomotor activity was determined during a 30 min period using a video image analyzer. Total duration of movement, occurence of movement and total distance travelled were measured. Haloperidol was tested at the dose of 0,25 mg/kg (prepared in 0.5% methylcellulose) and served as reference substance.
Compounds were considered as active if in a dose of 10 mg/kg reduced amphetamine-induced hyperlocomotion in experimental animals for 30% and more when compared to vehicle treated control group.

T1 sequence (P28223 whole entry): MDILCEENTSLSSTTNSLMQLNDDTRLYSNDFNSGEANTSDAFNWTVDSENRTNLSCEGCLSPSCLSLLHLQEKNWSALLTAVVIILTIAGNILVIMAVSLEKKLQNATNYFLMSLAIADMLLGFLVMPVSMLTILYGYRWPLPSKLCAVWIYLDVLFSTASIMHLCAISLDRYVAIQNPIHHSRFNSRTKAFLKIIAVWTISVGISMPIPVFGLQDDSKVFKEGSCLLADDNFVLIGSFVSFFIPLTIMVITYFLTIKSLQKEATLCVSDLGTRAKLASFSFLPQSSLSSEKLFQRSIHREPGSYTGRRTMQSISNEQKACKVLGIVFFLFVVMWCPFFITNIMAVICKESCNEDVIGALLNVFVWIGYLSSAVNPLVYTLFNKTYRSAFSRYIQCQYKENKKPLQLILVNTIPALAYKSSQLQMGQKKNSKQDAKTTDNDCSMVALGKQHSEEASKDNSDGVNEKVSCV
T3 sequence (Q99720 whole entry): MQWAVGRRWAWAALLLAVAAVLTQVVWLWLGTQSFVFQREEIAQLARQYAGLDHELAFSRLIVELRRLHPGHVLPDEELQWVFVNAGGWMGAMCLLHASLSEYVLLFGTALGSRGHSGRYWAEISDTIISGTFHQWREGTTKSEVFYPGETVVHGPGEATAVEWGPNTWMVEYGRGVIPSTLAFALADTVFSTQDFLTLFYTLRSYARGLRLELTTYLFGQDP

Consider `CN(C)CCCOCc1scc2c1-c1ccccc1Oc1ccccc1-2` [dimethyl-[3-(8-oxa-2-thia-dibenzo[e,h]azulen-1-ylmethoxy)-propyl]-amine], for which the IC50 on 5-HT2A receptor and at 5-HT2C receptor was less than 200 nM each time. The inhibition constant Ki at 5-HT2A receptor and at 5-HT2C receptor was less than 100 nM each time.
For `CN(C)CCOCc1scc2c1-c1ccccc1Sc1ccccc1-2` [[2-(2,8-dithia-dibenzo[e,h]azulen-1-ylmethoxy)-ethyl]-dimethyl-amine], the IC50 at 5-HT2A receptor, on 5-HT2C receptor and at σ1 receptor was less than 200 nM in each case. For the same compound, the Ki on 5-HT2A receptor, at 5-HT2C receptor and on σ1 receptor was less than 100 nM throughout.
Regarding `NCCCOCc1scc2c1-c1cc(Cl)ccc1Oc1ccccc1-2`, at 5-HT2A receptor, the IC50 was less than 200 nM and the Ki was less than 100 nM. Also, on 5-HT2C receptor, the IC50 is less than 200 nM and the inhibitory constant (Ki) is less than 100 nM.
As to `CN(C)CCOCc1scc2c1-c1ccccc1Oc1ccc(Cl)cc1-2` [[2-(5-chloro-8-oxa-2-thia-dibenzo[e,h]azulen-1-ylmethoxy)-ethyl]-dimethyl-amine], the half-maximal inhibitory concentration (IC50) at 5-HT2A receptor, on 5-HT2C receptor and on σ1 receptor was less than 200 nM throughout. For the same compound, the inhibition constant (Ki) at 5-HT2A receptor, at 5-HT2C receptor and at σ1 receptor was less than 100 nM in each case.
As for `NCCCOCc1scc2c1-c1ccccc1Oc1ccccc1-2` [3-(8-oxa-2-thia-dibenzo[e,h]azulen-1-ylmethoxy)-propylamine], at 5-HT2A receptor, the IC50 was less than 200 nM and the inhibition constant (Ki) was less than 100 nM. On 5-HT2C receptor, the concentration for half-maximal inhibition (IC50) was less than 200 nM and the inhibitory constant (Ki) is less than 100 nM.
For `CN(C)CCCOCc1scc2c1-c1ccccc1Sc1ccccc1-2` [[3-(2,8-dithia-dibenzo[e,h]azulen-1-ylmethoxy)-propyl]-dimethyl-amine], the 50% inhibitory concentration (IC50) on 5-HT2A receptor, at 5-HT2C receptor and at σ1 receptor was less than 200 nM throughout. In addition, the Ki at 5-HT2A receptor, at 5-HT2C receptor and on σ1 receptor was less than 100 nM in each case.
As to `CN(C)CCOCc1scc2c1-c1ccccc1Oc1ccccc1-2` [dimethyl-[2-(8-oxa-2-thia-dibenzo[e,h]azulen-1-ylmethoxy)-ethyl]-amine], the IC50 on 5-HT2A receptor, on 5-HT2C receptor and on σ1 receptor was less than 200 nM each time. Moreover, the Ki on 5-HT2A receptor, at 5-HT2C receptor and on σ1 receptor was less than 100 nM in each case.
As for “[2-(2,8-dithia-dibenzo[e,h]azulen-1-ylmethoxy)-ethyl]-dimethyl-ammonium citrate”, the “inhibition of amphetamine-induced hyperlocomotion” value in the assay on mice is listed as 40-60%.
